Experiment [1] deals with pERK in IPC-298 cells (NRAS^Q61L). Put plainly: Phospho-ERK AlphaScreen assay, pERK activation in IPC-298. It counts as cell-based, human. The settings on record: Homo sapiens, IPC-298, read-out: pERK activation EC50 IPC298. On the procedure: (§1) Phospho-ERK AlphaScreen® assay: The degree of ERK phosphorylation was determined using an AlphaScreen® assay where an increase in ERK1/2 phosphorylation at Thr202/Tyr204 brought the donor and acceptor AlphaScreen® beads into close proximity, generating a signal for quantification. To determine the effects of compound treatment on phosphorylation of ERK1/2, cells were plated in a 96-well plate and treated with an 8-point titration of compound for one hour at 37° C. before lysis. To detect pERK, cell lysates were incubated with streptavidin-coated AlphaScreen® donor beads, anti-mouse IgG AlphaScreen® acceptor beads, a biotinylated anti-ERK1/2 rabbit antibody, and a mouse antibody that recognizes ERK1/2 only when it is phosphorylated on Thr202 and Tyr204. The biotinylated ERK1/2 antibody binds to both the streptavidin-coated AlphaScreen® donor beads and to ERK1/2 (regardless of its phosphorylation state), and the phospho-ERK1/2 antibody binds to the acceptor beads and to ERK1/2 that is phosphorylated at Thr202/Tyr204. An increase in ERK1/2 phosphorylation at Thr202/Tyr204 brings the donor and acceptor AlphaScreen® beads into close proximity, generating a signal that can be quantified on an EnVision reader (Perkin Elmer).
(§2) Using AlphaScreen® technology, the ability of Formula I to affect the phosphorylation of ERK and MEK in the cells was measured quantitatively. Following treatment with compound, the cells were lysed, and a sample of the lysate was transferred to an assay plate. The lysate was mixed with antibodies directed against total ERK/MEK, antibodies that recognize specific phosphorylation sites on ERK/MEK, AlphaScreen® anti-mouse IgG Acceptor beads, and Streptavidin Donor beads. Upon excitation of the donor beads with laser light at 680 nm, singlet oxygen was produced. This singlet oxygen was rapidly quenched, unless the AlphaScreen® Acceptor beads were in close proximity, in which case a proximity signal can be measured at 580 nm. In the presence of phosphorylated ERK/MEK, there is a very strong proximity signal.
(§3) 1. One day before the assay, 50,000 cells were plated in each well of a 96-well tissue-culture-treated plate (Corning #3610) in a 50 μL volume. Cells were incubated at 37° C. overnight.
(§4) 2. Compounds were diluted in DMSO to 500× final concentration. Each compound was plated as an 8-point titration, using 1:3 dilutions in DMSO. The maximum concentration was about 5 mM.
(§5) 3. 1 μl of compound was added to each well of a 96-well polypropylene plate (Corning #3363). For A375, COLO829, SK-MEL-3, HCT116, and HT-29, the high control was DMSO, and the low control was 10 μM PLX4720 (CAS No. 918505-84-7). For B9 and IPC-298, the high control was 3.33 μM PLX4720, and the low control was DMSO. 4. 249 μL growth media was added to compounds, diluting them 250-fold. 5. […] The compound was incubated with the cells at 37° C. for one hour. 6. The media was aspirated, and the cells were lysed in 50 μL of ice-cold 1× Cell Lysis buffer. The plates were incubated on ice for 5 minutes to allow complete lysis of the cells. 7. A mixture of biotinylated donor antibody, acceptor antibody, and anti-mouse IgG AlphaScreen® acceptor beads in 1× AlphaLISA immunoassay buffer was prepared. 8. 5 μL of lysate was transferred to a 384-well assay plate (Perkin Elmer #6005359). 5 μL of the antibody and acceptor bead mixture was added. The plates were spinned.
On the technique in general: Bead proximity is the source of the signal in Alpha formats.

For experiment [2], the system named is pERK in B9 cells (HRAS^Q61L). Put plainly: Phospho-ERK AlphaScreen assay, pERK activation in B9. It is filed as cell-based, murine. The settings on record: Mus musculus, read-out: pERK activation EC50 B9. On the procedure: as §1, §2, §3, §4, §5
The test system of experiment [3] is pERK in A375 cells (BRAF^V600E, homozygous). Put plainly: Phospho-ERK AlphaScreen assay, pERK inhibition in A375. It is filed as cell-based. The settings on record: Homo sapiens, A-375, 1 h, read-out: pERK inhibition IC50 A375. On the procedure: as §1, §2, §3, §4, §5
The subject of experiment [4] is pERK in HCT116 cells (KRAS^G13D). Put plainly: Phospho-ERK AlphaScreen assay, pERK activation in HCT116. It counts as cell-based. The settings on record: Homo sapiens, HCT-116, read-out: pERK activation EC50 HCT116. On the procedure:
as §1, §2, §3, §4, §5

Experiment [5] has as its system pERK in COLO829 cells (BRAF^V600E, heterozygous). Put plainly: Phospho-ERK AlphaScreen assay, pERK inhibition in COLO829. It counts as cell-based. As to conditions: Homo sapiens, COLO-829, 1 h, read-out: pERK inhibition IC50 COLO829. On the procedure:
as §1, §2, §3, §4, §5

Experiment [6] addresses NIH/3T3 cells stably expressing KIAA1549-BRAF fusions (Homo sapiens, UniProt P15056). Put plainly: BRAF fusion xenograft tumor growth. It is filed as in vivo, balb/c nu/nu mice. As to conditions: three of the four KIAA1549-BRAF fusions; PLX4720 chow. On the procedure: NIH/3T3 (ATCC® CRL-1658™) cells stably expressing KIAA1549-BRAF fusions (Fusion-1, Fusion-2, Fusion-3, and Fusion-4) were injected into the flank of balb/c nu/nu mice. Tumor growth was measured with calipers. Ellipsoid tumor volume was calculated using the following formula: volume=½·length·width^2.

This is an account of results in patent publication US9814714B2, “Kinase modulation, and indications therefor” (Plexxikon Inc., priority 2015, dated 2017).

Broadly, the EC50 is the concentration that produces a half-maximal response. The term IC50 denotes the midpoint of a concentration-inhibition curve.

Structures are written as SMILES.

Chain of NIH/3T3 cells stably expressing KIAA1549-BRAF fusions (P15056 448-766 limits assumed): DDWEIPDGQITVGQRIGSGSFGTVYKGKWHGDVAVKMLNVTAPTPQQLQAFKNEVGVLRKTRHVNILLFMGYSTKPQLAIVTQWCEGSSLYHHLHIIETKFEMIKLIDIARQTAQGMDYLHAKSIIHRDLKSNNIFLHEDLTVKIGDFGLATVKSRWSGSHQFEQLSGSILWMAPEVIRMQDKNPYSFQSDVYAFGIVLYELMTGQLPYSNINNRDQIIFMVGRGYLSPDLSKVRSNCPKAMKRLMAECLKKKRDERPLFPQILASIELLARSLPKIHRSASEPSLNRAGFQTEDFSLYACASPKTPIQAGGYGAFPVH

As to `CNC(=O)c1cc(Oc2ccc(NC(=O)Nc3ccc(Cl)c(C(F)(F)F)c3)cc2)ccn1` [Sorafenib, sorafenib], the figures for the 50% effective concentration (EC50) in experiment [1], in experiment [2] and in experiment [4] were 0.019 µM, 0.025 µM and 0.086 µM, respectively. The IC50 in experiment [3] was 4.4 µM; in experiment [5], 2 µM.

`CC(C)(C)c1nc(-c2cccc(NS(=O)(=O)c3c(F)cccc3F)c2F)c(-c2ccnc(N)n2)s1` [Dabrafenib, dabrafenib]: the EC50 in experiment [1] is 0.01 µM; in experiment [2] it was 0.01 µM; in experiment [4] it was 0.003 µM. For the same compound, the IC50 in experiment [3] amounted to 0.001 µM; in experiment [5], 0.005 µM.

Consider `CCCS(=O)(=O)Nc1ccc(F)c(C(=O)c2c[nH]c3ncc(Cl)cc23)c1F` [PLX4720, reference compound], for which, in experiment [6], the “Effect on xenograft tumor growth (in words)” value is listed as “increased tumor growth”.
